The values below come from patent US4487708A (priority 1981, dated 1984).

The nature of data set [1]: oxygen scavenging efficacy at elevated temperature and pressure (hot water flow system). The protocol:
In a first series of tests, the oxygen scavenging efficacies of various materials were evaluated under conditions of elevated temperature and pressure. The test apparatus used was essentially a stainless steel hot water flow system equipped with appropriate monitoring instrumentation. Demineralized feedwater, adjusted to the appropriate pH and initial dissolved oxygen level (controlled by nitrogen sparging), was pumped from a reservoir at ambient temperature into a once-through heater. Temperature was monitored continuously by means of thermocouples at several locations along the length of the flow tubing. A solution containing the oxygen scavenger test material was loaded into a pump driven syringe and fed continuously to the heated flow stream through a port containing a stainless steel ribbon mixing baffle. The feedwater containing dissolved oxygen and the test material then traversed the flow tubing via a by-pass comprising an additional length of coiled tubing. Contact (or reaction) time of the test material and dissolved oxygen was governed by the choice of coil length. The tendency of the temperature to drop during residence in the coiled tubing was offset by the use of thermostatted heating tapes which maintained the temperature in this tubing at 78±3° C. Upon exiting the coiled tubing, the stream flowed through a sample cooler to render the temperature of the liquid compatible with the operating range of a membrane-type dissolved oxygen probe. The cooled liquid was analyzed for dissolved oxygen via a D.O. flow cell, and pH was potentiometrically monitored in the flow tube immediately downstream of the D.O. probe. Outputs of the temperature, pH and dissolved oxygen probes during operation were monitored via strip chart recorders. The final destination of the reaction mixture was a reservoir which could be drained for analysis of reaction products, if desired.
Temperature in the system could be maintained at 78±3+ C. under 4±1 psig. Residence time of the feedwater in the flow tube from chemical feed point to D.O. flow cell outlet was 4±0.2 minutes. Approximately 3.5 minutes of this total was spent in a 40' length of 0.402 inch i.d. coiled tubing. Entry into and residence in the sample cooler accounted for 0.5 minute of the total contact time.
According to an article by J. W. Cohn and R. E. Powell, Jr., J. Amer.
The test solutions were prepared by initially mixing 10 grams of test material and 90 grams of demineralized water in glass bottles and allowing the mixture to remain in a shaker for several hours. If complete dissolution for a given material was observed after shaking, the pH of the solution was measured. When the pH of the solution was below 10.0, 7N sodium hydroxide was added dropwise until this value was reached. The quantity of added sodium hydroxide was recorded and later used in corrections for the active concentration of the solution. When the pH value of a stock solution was above pH 10.0 without requiring the addition of caustic, the solution was not further modified.
Results of these tests are reported in TABLE 1 below in terms of percent oxygen removed from the test stream. The precision of the initial and final dissolved oxygen values reported is approximately ±10%. […] The experimental uncertainties decrease with increasing values of percent dissolved oxygen removal.
The specific experimental conditions were:
Reaction Time=240±10 seconds

The conditions of data set [2]: for mu-amine required to effect dissolution: saturated solution, 10.0 g hydroquinone (6.3 + 3.7 g) in 89.5 g water. The procedure:
Volumes of mu-amines required to effect dissolution were recorded and converted to weights via density.

Data set [3] can be described thus: room temperature oxygen scavenging test (flask with dissolved oxygen probe). Conditions: for % O2 Removed: 60 seconds; for % O2 Removed / % O2 Removed At 60 Seconds: 23-25 °C; for % O2 Removed At 60 Seconds: Table 11, hydroquinone 93 ppm; for % O2 Removed, 1 Minute: hydroquinone: pH 8.6, 22.5 °C, ratio 0.94, initial O2 7.7 ppm.
Excerpt: The test apparatus basically consisted of a 1 liter, three-necked flask fitted with a dissolved oxygen probe and a pH electrode. The intent of this apparatus was to show reaction kinetics differences rather than precise measurements (within seconds) of reaction times.
The flask was filled with deionized water which had been stripped of some dissolved oxygen by bubbling nitrogen through a diffuser stone. The pH was adjusted to the desired level with sodium hydroxide. The flask was sealed with a rubber septum, the dissolved oxygen probe and the pH electrode. A magnetic stirrer bar was left in the flask for mixing. The mixer was turned on, and dissolved oxygen and temperature readings were recorded until the dissolved oxygen reached a constant value. Next, the appropriate quantity of additive was injected through the septum using a hypodermic syringe. The initial mole ratio of treatment to dissolved oxygen was determined by weighing feed chemical and measuring the oxygen concentration. […] Dissolved oxygen and temperature readings were then taken at appropriate time intervals.
Using the same apparatus and procedure as described in Example 4 above, oxygen scavenging experiments were performed by injecting 1 ml of stock solution into a glass vessel containing 1070 ml of air-saturated, demineralized water adjusted to the appropriate pH with 7N sodium hydroxide. […] The final pH values indicated are for the test water.
The stock solution concentrations are presented in terms of weight % aqueous. The stock solutions were each 100 grams total. […] The tests were conducted at ambient temperature (23°-25° C.).
The tests were conducted at ambient temperature (23°-25° C.).
Data set [4] is described as follows: dissolution and storage stability of hydroquinone/methoxypropylamine solutions. It counts as physicochemical. The procedure:
The following 25 gram solutions were prepared and sealed in glass bottles (components listed in order of addition):
Fifty (50) grams of each of the following solutions were prepared in glass bottles, sealed and placed on a shaker for two hours: […]

For data set [5] the following is noted: cited from earlier work.
A short description of data set [6]: compatibility of neutralizing amines with hydroquinone in solution. Type of data set: physicochemical. The following applies: combined with hydroquinone. The text has this: To provide convenient single-drum treatments, it was decided to test-formulate various dioxo aromatic compounds with neutralizing amines.
For data set [7] the following is noted: cited from earlier work. The source holds these as a separate data set.
Data set [8] can be described thus: oxygen removal from feedwater of a working boiler (Example 2). The procedure: In order to compare the performance of hydroquinone with that of hydrazine under field-type conditions, a series of experiments were conducted on the feedwater of a working boiler. The test materials were fed to the deaerator storage tank, and the resultant change, if any, in dissolved oxygen level was measured on a sample flowing from the feedwater line through a membrane-type dissolved oxygen probe.
During the tests, a relatively wide range of experimental conditions was encountered among the test parameters, reflecting the difficulty of attempting to obtain precise data during experiments performed on a working boiler.
In order to provide some point of reference for judging oxygen scavenging efficacies while taking into account the diverse conditions experienced on a daily basis, hydrazine control runs were performed, whenever possible, under feedwater and boiler conditions similar to those encountered during testing of other test materials. The hydrazine control runs are reported below in Table 3, also in terms of % oxygen removal.

Data set [9] can be described thus: thermal stability of amines / dioxo aromatic compounds (no method given). Type of data set: physicochemical. The following applies: of the amines tested.
The mark [10] stands for this setting: Table 1, 78±3 °C, 4±1 psig, contact 4±0.2 min, feedwater 58-100 ppm, pH 8.9-10.9, initial O2 1.8-2.3 ppm, hydrazine average of 9 runs, values below 20% may be artifacts.
Where [11] appears, read: Table 8, mu-amine combined with hydroquinone, 103 ppm each, final pH 9.3-10.5.
[12] abbreviates: stock mu-amine 1.5 / hydroquinone 10.0 wt. %, HQ:mu-amine 6.67:1.
Where [13] appears, read: stock mu-amine 90.0 / hydroquinone 10.0 wt. %, HQ:mu-amine 1:9.
Setting [14] is: stock mu-amine 99.0 / hydroquinone 1.0 wt. %, HQ:mu-amine 1:99.
Where [15] appears, read: 6.3 g hydroquinone in 89.5 g demineralized water.
Setting [16] is: Table 5, hydrazine: pH 9.2, 26.5 °C, ratio 10.5, initial O2 0.87 ppm.
Setting [17] is: Table 9, mu-amine combined with hydroquinone, about 30 ppm / 10 ppm, 78±1 °C, 3-5 psig, 240±10 seconds, final pH 10.3, initial O2 500-750 ppb.
Setting [18] is: Table 10, mu-amine combined with hydroquinone, 6.7 ppm each, 78±1 °C, 3-5 psig, 240±10 seconds, final pH 9.7, initial O2 1.0-1.5 ppm.

On to `Nc1ccccc1N` [o-phenylenediamine, reference compound], for which the “% O2 Removed” value in data set [1] (setting [10]) amounted to 10%.
Turning to `CN(C)CCCN` [Dimethylaminopropylamine], the “mu-amine required to effect dissolution” value in data set [2] worked out at 1.7 grams. In [3] (setting [11]), the “% O2 Removed” value was determined as 76%. The “% O2 Removed At 60 Seconds” value in data set [3] (setting [12]) was 94%; in data set [3] (stock mu-amine 30.0 / hydroquinone 10.0 wt. %, HQ:mu-amine 1:3) it was 99%; in data set [3] (setting [13]) it was 98%; in data set [3] (setting [14]), 50%.
In the case of `Oc1ccc(O)cc1` [hydroquinone], the “dissolution time, solution #1” value in data set [2] (setting [15]) amounted to 23 min. In data set [2] (setting [15]), the “dissolution time, solution #2” value was 19 min. Moreover, the “dissolution time, solution #3” value in [2] (setting [15]) is 21 min. The “active hydroquinone concentration of stable aqueous solution” value in [4] (1 to 1 with methoxypropylamine (40%), sealed storage for 12 days) is “up to 40%”. Also, the “% O2 Removed, 1 Minute” value in [3] (setting [16]) stood at 29%. Besides, the “% O2 Removed” value in data set [3] (Table 12, mu-amine 0 / hydroquinone 1.0 wt. %, final pH 8.1) worked out at 9%; in data set [3] (Table 12, mu-amine 0 / hydroquinone 3.0 wt. %, final pH 8.0), 17%; in data set [3] (Table 12, mu-amine 0 / hydroquinone 6.0 wt. %, final pH 7.9), 27%; in data set [1] (setting [10]) it was 97%. Besides, in data set [5] (25 °C), the “aqueous solubility (accepted literature value)” value was about 7%. Further, the solubility in water result in data set [5] (hydroquinone alone) is “about 7%”.
On to `NCCN` [Ethylenediamine], for which the “% O2 Removed” value in [3] (setting [11]) was determined as 85%; in [1] (setting [17]) it was 99%.
In the case of `C1COCCN1` [Morpholine], the “compatibility with hydroquinone in solution” value (“compatibility” below) in data set [6] is recorded as “precipitated out of solution”.
Take `CC(O)CN` (stereo not drawn) [Monoisopropanolamine]: the “% O2 Removed” value in data set [1] (setting [18]) is 98%.
In the case of `NN` [hydrazine], the “pH of maximum oxygen scavenging efficacy” value in [7] (Cohn and Powell 1954) is recorded as 10.0-10.5 pH. Also, the decomposition temperature entry in data set [7] (forms ammonia) is “Above 400 ° F”. The “rate of reaction with oxygen” value in data set [7] (low temperatures, such as room temperature) is reported as “very slow at low temperatures”. Also, the “% O2 Removed, 5 Minutes” value in [3] (setting [16]) stood at 2%. Besides, the “% O2 Removed, 1 Minute” value in [3] (setting [16]) is 1%. In addition, the “% O2 Removed” value was found to be 69% in data set [8] (Table 3, control run 1, 1.6 ppm actives, pH 8.8, steam load 11, initial O2 13.0 ppb); 50% in [8] (Table 3, control run 2, 1.1 ppm actives, pH 9.4, steam load 15, initial O2 4.0 ppb); 60% in data set [8] (Table 3, control run 3, 1.2 ppm actives, pH 8.6, steam load 15, initial O2 6.0 ppb); 55% in data set [8] (Table 3, control run 4, 1.0 ppm actives, pH 8.8, steam load 15, initial O2 5.8 ppb); 31% in [8] (Table 3, control run 5, 0.8 ppm actives, pH 9.4, steam load 11, initial O2 3.5 ppb); 30% in [8] (Table 3, control run 6, 1.6 ppm actives, pH 9.6, steam load 14, initial O2 4.0 ppb).
As for `CC(O)CNCC(C)O` (stereo not drawn) [Diisopropanolamine], the “% O2 Removed” value in data set [3] (setting [11]) stood at 86%.
Consider `COCCCN` [Methoxypropylamine], for which, in data set [2] (10.0 g hydroquinone, neat MOPA), the “MOPA required to dissolve hydroquinone” value is 12.5 grams. Moreover, in [2], the “mu-amine required to effect dissolution” value came to 1.7 grams. Moreover, the thermal stability result in data set [9] is on record as “most thermally stable of the amines tested”. The “lowest practical MOPA concentration in the mixture” value in data set [4] (10% hydroquinone aqueous solution) turned out to be 2%. In addition, the “% O2 Removed At 60 Seconds” value in [3] (setting [12]) is 96%; in data set [3] (stock mu-amine 2.0 / hydroquinone 10.0 wt. %, HQ:mu-amine 5:1), 96%; in data set [3] (stock mu-amine 3.0 / hydroquinone 10.0 wt. %, HQ:mu-amine 3.33:1), 96%; in [3] (stock mu-amine 15.0 / hydroquinone 15.0 wt. %, 1:1), 95%; in data set [3] (stock mu-amine 20.0 / hydroquinone 20.0 wt. %, 1:1), 98%; in [3] (stock mu-amine 30.0 / hydroquinone 30.0 wt. %, 1:1), 98%. Besides, the “% O2 Removed At 60 Seconds” value worked out at 94% in [3] (stock mu-amine 40.0 / hydroquinone 40.0 wt. %, 1:1); 94% in data set [3] (setting [13]); 96% in data set [3] (setting [14]). In addition, the “% O2 Removed” value in data set [3] (Table 12, methoxypropylamine 1.0 / hydroquinone 1.0 wt. %, final pH 8.5) was found to be 10%; in data set [3] (Table 12, methoxypropylamine 1.0 / hydroquinone 6.0 wt. %, final pH 8.4) it was 78%; in data set [3] (Table 12, methoxypropylamine 3.0 / hydroquinone 3.0 wt. %, final pH 8.9), 74%; in data set [3] (Table 12, methoxypropylamine 6.0 / hydroquinone 1.0 wt. %, final pH 9.0), 17%; in data set [3] (Table 12, methoxypropylamine 6.0 / hydroquinone 6.0 wt. %, final pH 9.0) it was 93%; in data set [1] (setting [18]), 99%.
With `NC1CCCCC1` [Cyclohexylamine], in [6], the “compatibility” value is on record as “precipitated out of solution”.
For `Oc1cccc(O)c1` [resorcinol, reference compound], the “% O2 Removed” value in [1] (setting [10]) is recorded as 0%.
For `NCCO` [Monoethanolamine], the “% O2 Removed” value in data set [3] (setting [11]) was 75%.
For `CCC(C)N` (stereo not drawn) [sec-Butylamine], the “compatibility” value in data set [6] is listed as “compatible with hydroquinone in solution”. The “% O2 Removed” value in [3] (setting [11]) turned out to be 74%.
Consider `NCCNCCNCCN` [Triethylenetetramine], for which the “% O2 Removed” value in [3] (setting [11]) was 89%.
Turning to Dimethyl(iso)propanolamine, the entries for the “% O2 Removed” value in [3] (setting [11]) and in [1] (setting [17]) were 73% and 98%, respectively.
Take `Nc1ccc(N)cc1` [p-phenylenediamine, reference compound]: in data set [1] (setting [10]), the “% O2 Removed” value was found to be 35%.
As to `CC(C)(C)N` [tert-Butylamine], in data set [6], the “compatibility” value was “insoluble mass”.
